Source: US11655235B2, “Pyrrolidine and piperidine compounds” (YUHAN CORPORATION, priority 2019, dated 2023)
Like-named read-outs stand apart in the source and are kept apart here.

Columns and labels:
Format in all cases: biochemical
recombinant human PREP = molecular target: T1, recombinant human PREP (Homo sapiens, UniProt P48147); experiment: PREP inhibition, fluorogenic substrate Z-Gly-Pro-AMC; conditions: Inhibitory Activity (IC50, nM) PREP
T1 construct: purchased R&D System
T1 sequence (P48147 1-710): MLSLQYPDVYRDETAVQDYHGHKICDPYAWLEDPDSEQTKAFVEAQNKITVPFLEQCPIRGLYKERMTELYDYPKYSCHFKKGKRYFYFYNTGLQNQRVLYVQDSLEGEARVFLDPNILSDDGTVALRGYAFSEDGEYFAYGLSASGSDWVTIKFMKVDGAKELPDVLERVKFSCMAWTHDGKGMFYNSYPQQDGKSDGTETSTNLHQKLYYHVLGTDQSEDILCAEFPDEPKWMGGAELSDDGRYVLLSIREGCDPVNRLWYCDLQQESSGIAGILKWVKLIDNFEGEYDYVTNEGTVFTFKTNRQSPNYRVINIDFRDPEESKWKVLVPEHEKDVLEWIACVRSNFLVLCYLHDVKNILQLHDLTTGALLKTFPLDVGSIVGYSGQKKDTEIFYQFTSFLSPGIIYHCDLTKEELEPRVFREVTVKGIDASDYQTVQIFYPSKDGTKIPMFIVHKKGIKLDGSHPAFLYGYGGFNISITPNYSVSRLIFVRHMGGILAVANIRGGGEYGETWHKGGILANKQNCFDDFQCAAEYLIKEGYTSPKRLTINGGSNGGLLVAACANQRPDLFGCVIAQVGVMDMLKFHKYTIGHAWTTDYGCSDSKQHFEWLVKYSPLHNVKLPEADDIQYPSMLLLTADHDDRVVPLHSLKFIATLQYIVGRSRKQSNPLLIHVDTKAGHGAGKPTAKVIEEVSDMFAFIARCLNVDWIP
Method in brief: (§1)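 Enzyme per reaction: 50 ng DPP9, 20 ng DPP8, 10 ng each DPP7 and PREP. Compounds were serially diluted (8 points, up to 0.5% DMSO) and incubated at 25 °C.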

recombinant human DPP9 = molecular target: T2, recombinant human DPP9 (Homo sapiens, UniProt Q86TI2); experiment: DPP9 inhibition, fluorogenic substrate H-Gly-Pro-AMC
T2 construct: purchased R&D Systems
Method in brief: as §1

recombinant human DPP7 = molecular target: T3, recombinant human DPP7 (Homo sapiens, UniProt Q9UHL4); experiment: DPP7 inhibition, fluorogenic substrate Lys-Pro-AMC
T3 construct: purchased R&D Systems
Method in brief: as §1

DPP4 = DPP4 (Homo sapiens, UniProt P27487); experiment: DPP4 inhibition, fluorogenic substrate H-Gly-Pro-AMC; parameters: purchased R&D Systems
recombinant human DPP8 = molecular target: T4, recombinant human DPP8 (Homo sapiens, UniProt Q6V1X1); experiment: DPP8 inhibition, fluorogenic substrate Z-Ala-Pro-AMC
T4 construct: purchased PBS Bioscience
Experimental: The compounds according to the present technology were evaluated in terms of the inhibitory effect on the activity of dipeptidyl peptidases including FAP by using a substrate producing fluorescent substances upon enzymatic decomposition. The test was conducted at 25° C. to get a final reaction volume of 100 μL in a 96 black well plate. […] Briefly, the test compounds were dissolved in dimethyl sulfoxide (DMSO) at a concentration of 20 mM and then subjected to serial dilution, thereby creating an 8 point curve. As for the control group, a 6 point curve created by serial dilution of Talabostat in the same buffer solution was used. Fluorescence intensity was measured using a microplate reader (Flexstation3, Molecular Devices) under the wavelength condition exciting at 380 nm and reading the emission at 460 nm. The inhibitory effect of the test compounds was measured as a decrease (%) in the signal rate as compared to the control group without any inhibitor. Data was fixed to a logistic model with four variables and IC50 value was calculated using GraphPad Prism program. As for recombinant human DPP4 (R&D Systems), 25 mM tris (pH 8.0) buffer as a buffer solution and H-Gly-Pro-AMC (Bachem) as a substrate were used. As for recombinant human DPP7 (R&D Systems), 25 mM MES (pH 6.0) buffer as a buffer solution and Lys-Pro-AMC (Bachem) as a substrate were used. As for recombinant human DPP8 (PBS Bioscience), as a buffer solution, a 10 mM tris (pH 7.4) buffer comprising 10 mM of magnesium chloride and 0.05% of Tween 20, and Z-Ala-Pro-AMC (BPS Bioscience) as a substrate were used. As for recombinant human DPP9 (R&D Systems), a 25 mM tris (pH 8.0) buffer as a buffer solution and H-Gly-Pro-AMC (Bachem) as a substrate were used. As for recombinant human PREP (R&D System), as a buffer solution, a 25 mM tris (pH 7.5) buffer comprising 250 mM sodium chloride and 2.5 mM DTT (Dithiolthreitol), and Z-Gly-Pro-AMC (Bachem) as a substrate were used. The evaluation was made by using 10 ng of DPP4, PDD7, and PREP, 20 ng of DPP8, and 50 ng of DPP9 based on the final reaction. In the evaluation of DPP4, the test compounds were subjected to serial dilution in a buffer under the condition containing up to 0.1% of DMSO. In the evaluation of DPP7, DPP8, DPP9, and PREP, the test compounds were subjected to serial dilution in each buffer under the condition containing up to 0.5% of DMSO.

Recombinant human FAP = molecular target: T5, Recombinant human FAP (Homo sapiens, UniProt Q12884); experiment: FAP inhibition, fluorogenic substrate Z-Gly-Pro-AMC
T5 construct: purchased R&D systems
T5 sequence (Q12884 1-760): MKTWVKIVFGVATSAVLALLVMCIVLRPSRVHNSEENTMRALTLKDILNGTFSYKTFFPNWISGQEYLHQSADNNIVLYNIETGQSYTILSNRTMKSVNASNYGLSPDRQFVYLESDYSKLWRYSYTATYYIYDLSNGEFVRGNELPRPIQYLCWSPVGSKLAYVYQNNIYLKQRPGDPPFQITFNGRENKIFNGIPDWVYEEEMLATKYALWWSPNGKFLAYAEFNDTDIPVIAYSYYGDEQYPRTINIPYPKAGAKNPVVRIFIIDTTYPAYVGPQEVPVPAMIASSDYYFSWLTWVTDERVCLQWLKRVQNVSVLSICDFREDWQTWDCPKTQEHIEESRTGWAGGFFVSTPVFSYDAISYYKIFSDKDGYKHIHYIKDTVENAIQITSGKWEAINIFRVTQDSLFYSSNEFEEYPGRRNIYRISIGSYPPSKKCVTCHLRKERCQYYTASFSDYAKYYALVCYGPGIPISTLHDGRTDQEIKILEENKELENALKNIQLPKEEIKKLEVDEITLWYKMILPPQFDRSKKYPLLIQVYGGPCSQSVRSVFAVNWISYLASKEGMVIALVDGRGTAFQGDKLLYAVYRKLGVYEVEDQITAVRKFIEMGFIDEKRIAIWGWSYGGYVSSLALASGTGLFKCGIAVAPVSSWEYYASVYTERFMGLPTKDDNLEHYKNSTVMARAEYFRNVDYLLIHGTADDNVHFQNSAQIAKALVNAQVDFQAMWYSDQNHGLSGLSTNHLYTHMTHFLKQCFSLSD
Method in brief: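 Recombinant human FAP, 10 ng per reaction, in 50 mM Tris pH 7.5 with 1 M NaCl and 1 mg/ml BSA at 25° C; substrate Z-Gly-Pro-AMC, ≤0.1% DMSO. AMC fluorescence read at ex 380/em 460 nm; % signal-rate decrease vs no-inhibitor control, 8-point curves fitted to a four-parameter logistic for IC50.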

[1] = recombinant human FAP, substrate Z-Gly-Pro-AMC
[2] = 25° C., Z-Gly-Pro-AMC substrate
[3] = 25° C., H-Gly-Pro-AMC substrate
[4] = 25° C., Z-Ala-Pro-AMC substrate

T4 sequence (Q6V1X1 whole entry): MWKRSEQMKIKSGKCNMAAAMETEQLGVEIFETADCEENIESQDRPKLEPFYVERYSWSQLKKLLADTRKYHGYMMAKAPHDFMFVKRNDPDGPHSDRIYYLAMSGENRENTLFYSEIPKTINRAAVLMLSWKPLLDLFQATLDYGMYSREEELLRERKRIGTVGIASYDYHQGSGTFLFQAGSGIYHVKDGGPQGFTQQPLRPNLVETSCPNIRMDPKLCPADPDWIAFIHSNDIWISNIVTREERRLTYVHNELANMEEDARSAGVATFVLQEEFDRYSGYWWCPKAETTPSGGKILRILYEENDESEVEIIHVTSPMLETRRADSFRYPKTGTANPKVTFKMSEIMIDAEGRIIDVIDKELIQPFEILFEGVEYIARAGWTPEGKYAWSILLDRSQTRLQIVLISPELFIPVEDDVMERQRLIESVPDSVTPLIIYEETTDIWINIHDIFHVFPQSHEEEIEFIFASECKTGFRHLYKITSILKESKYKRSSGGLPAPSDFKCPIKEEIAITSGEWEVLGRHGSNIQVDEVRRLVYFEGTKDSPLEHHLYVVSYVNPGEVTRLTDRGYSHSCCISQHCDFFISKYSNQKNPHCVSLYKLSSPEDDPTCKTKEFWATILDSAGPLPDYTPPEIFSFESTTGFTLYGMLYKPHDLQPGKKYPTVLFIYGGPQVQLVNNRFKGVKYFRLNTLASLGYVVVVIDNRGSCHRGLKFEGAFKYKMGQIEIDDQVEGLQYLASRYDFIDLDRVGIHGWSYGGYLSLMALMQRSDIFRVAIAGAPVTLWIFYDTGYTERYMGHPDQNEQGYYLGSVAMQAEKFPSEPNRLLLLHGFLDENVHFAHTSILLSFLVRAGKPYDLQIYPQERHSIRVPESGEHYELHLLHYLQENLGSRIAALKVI
T2 sequence (Q86TI2 whole entry): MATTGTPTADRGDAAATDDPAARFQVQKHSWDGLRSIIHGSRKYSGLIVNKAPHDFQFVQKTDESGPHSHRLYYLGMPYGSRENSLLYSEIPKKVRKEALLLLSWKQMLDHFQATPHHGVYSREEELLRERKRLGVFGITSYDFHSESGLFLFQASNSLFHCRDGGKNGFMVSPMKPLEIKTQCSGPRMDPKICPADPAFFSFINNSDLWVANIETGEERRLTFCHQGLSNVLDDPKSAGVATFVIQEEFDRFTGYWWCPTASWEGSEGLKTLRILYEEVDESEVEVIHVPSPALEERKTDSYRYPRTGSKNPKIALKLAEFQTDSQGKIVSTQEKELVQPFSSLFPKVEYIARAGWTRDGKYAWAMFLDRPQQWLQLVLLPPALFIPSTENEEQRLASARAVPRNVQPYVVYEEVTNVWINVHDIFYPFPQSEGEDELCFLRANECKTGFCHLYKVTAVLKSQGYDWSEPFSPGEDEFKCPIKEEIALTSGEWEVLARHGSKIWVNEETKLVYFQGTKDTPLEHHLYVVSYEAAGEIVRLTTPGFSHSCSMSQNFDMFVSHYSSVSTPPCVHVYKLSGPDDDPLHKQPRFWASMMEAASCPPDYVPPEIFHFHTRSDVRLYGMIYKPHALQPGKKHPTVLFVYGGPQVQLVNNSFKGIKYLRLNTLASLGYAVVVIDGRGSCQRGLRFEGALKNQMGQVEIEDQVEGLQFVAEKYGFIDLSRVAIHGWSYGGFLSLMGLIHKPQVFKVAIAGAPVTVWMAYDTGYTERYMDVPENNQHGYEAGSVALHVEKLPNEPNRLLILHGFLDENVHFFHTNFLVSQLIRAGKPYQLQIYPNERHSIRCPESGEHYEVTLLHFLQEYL
Chain of DPP4 (P27487 whole entry): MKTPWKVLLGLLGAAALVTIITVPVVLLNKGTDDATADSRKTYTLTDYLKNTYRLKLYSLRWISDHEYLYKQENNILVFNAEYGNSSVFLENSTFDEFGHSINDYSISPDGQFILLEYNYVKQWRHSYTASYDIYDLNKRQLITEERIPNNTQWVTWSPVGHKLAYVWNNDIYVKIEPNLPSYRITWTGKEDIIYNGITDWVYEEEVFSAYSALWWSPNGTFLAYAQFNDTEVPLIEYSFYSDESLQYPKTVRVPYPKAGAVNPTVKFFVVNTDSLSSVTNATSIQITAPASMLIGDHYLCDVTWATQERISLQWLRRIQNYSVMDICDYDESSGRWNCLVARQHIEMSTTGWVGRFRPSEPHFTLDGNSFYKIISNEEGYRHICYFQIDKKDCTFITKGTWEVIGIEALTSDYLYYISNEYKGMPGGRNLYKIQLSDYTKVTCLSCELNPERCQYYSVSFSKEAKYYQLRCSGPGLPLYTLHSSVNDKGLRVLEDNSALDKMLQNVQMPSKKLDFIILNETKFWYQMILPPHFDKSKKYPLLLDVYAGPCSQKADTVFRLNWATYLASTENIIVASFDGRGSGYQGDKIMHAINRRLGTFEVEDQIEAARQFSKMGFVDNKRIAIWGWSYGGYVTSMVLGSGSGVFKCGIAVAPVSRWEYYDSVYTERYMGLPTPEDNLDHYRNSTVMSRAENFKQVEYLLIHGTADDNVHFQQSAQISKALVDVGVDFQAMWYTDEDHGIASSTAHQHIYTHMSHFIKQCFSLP

| Structure (SMILES) | IC50 (recombinant human PREP; recombinant human PREP) [nM] | IC50 (recombinant human DPP9; recombinant human DPP9) [µM] | IC50 (recombinant human DPP7; recombinant human DPP7) [µM] | IC50 (DPP4; recombinant human DPP4) [µM] | IC50 (recombinant human DPP8; recombinant human DPP8) [µM] | IC50 (Recombinant human FAP; [1]) [µM] | IC50 (recombinant human PREP; [2]) [nM] | IC50 (recombinant human DPP9; [3]) [µM] | IC50 (recombinant human DPP7) [µM] | IC50 (DPP4; [3]) [µM] | IC50 (recombinant human DPP8; [4]) [µM] | IC50 (Recombinant human FAP; [2]) [µM] |
| --- | --- | --- | --- | --- | --- | --- | --- | --- | --- | --- | --- | --- |
| N#C[C@@H]1CCCN1C(=O)CN1CCC(NC(=O)c2cccc3cccnc23)CC1 [Example 301, N-[1-[2-oxo-2-[(2S)-2-cyanopyrrolidin-1-yl]ethyl]-4-piperidyl]quinoline-8-carboxamide] | 36000 | > 100 | 1.56 | 8.13 | > 100 | 0.0695 |  |  |  |  |  |  |
| Cc1cncc2cccc(NC3CCN(CC(=O)N4C[C@@H](F)C[C@H]4C#N)CC3)c12 [Example 354, (2S,4S)-4-fluoro-1-[2-[4-[(4-methyl-5-isoquinolyl)amino]-1-piperidyl]acetyl]pyrrolidine-2-carbonitrile] | 2820 | 4.94 | 0.428 | 2.08 | 1.78 | 0.0089 |  |  |  |  |  |  |
| N#C[C@@H]1C[C@H](F)CN1C(=O)CN1CCC(Nc2ccnc3c(C(F)(F)F)cccc23)CC1 [Example 346, (2S,4S)-4-fluoro-1-[2-[4-[[8-(trifluoromethyl)-4-quinolyl]amino]-1-piperidyl]acetyl]pyrrolidine-2-carbonitrile] | 637 | 3.26 | 0.339 | 2.35 | 5.96 | 0.0027 |  |  |  |  |  |  |
| COc1ccc2c(C(=O)N[C@H]3CCN(CC(=O)N4C[C@@H](F)C[C@H]4C#N)C3)coc2c1 [Example 136, 6-methoxy-N-[(3S)-1-[2-oxo-2-[(2S,4S)-2-cyano-4-fluoro-pyrrolidin-1-yl]ethyl]pyrrolidin-3-yl]benzofuran-3-carboxamide] |  |  |  |  |  |  | 5150 | 14.5 | 1.95 | 9.03 | 22.3 | 0.0123 |
| N#C[C@@H]1CCCN1C(=O)CN1CC[C@H](Nc2cnc3ccccc3c2)C1 [Example 229, (2S)-1-[2-[(3S)-3-(3-quinolylamino)pyrrolidin-1-yl]acetyl]pyrrolidine-2-carbonitrile] | 4840 | 36.3 | 1.16 | > 10 | > 100 | 0.0168 |  |  |  |  |  |  |
| N#C[C@@H]1CCCN1C(=O)CN1CC[C@H](Nc2ccc3ncccc3c2)C1 [Example 230, (2S)-1-[2-[(3S)-3-(6-quinolylamino)pyrrolidin-1-yl]acetyl]pyrrolidine-2-carbonitrile] | 8770 | 17.6 | 1.36 | > 10 | > 100 | 0.0093 |  |  |  |  |  |  |
| COc1ccc2nc(C(F)(F)F)cc(OC3CCN(CC(=O)N4C[C@@H](F)C[C@H]4C#N)CC3)c2c1 [Example 414, (2S,4S)-4-fluoro-1-[2-[4-[[6-methoxy-2-(trifluoromethyl)-4-quinolyl]oxy]-1-piperidyl]acetyl]pyrrolidine-2-carbonitrile] | 57500 | > 100 | 8.74 | > 10 | 44 | 0.0043 |  |  |  |  |  |  |
| CN(c1cccc2cnccc12)C1CCN(CC(=O)N2CCC[C@H]2C#N)CC1 [Example 313, (2S)-1-[2-[4-[5-isoquinolyl(methyl)amino]-1-piperidyl]acetyl]pyrrolidine-2-carbonitrile] | 9360 | 13.7 | > 100 | > 10 | > 100 | 0.0739 |  |  |  |  |  |  |
| N#C[C@@H]1CCCN1C(=O)CN1CC[C@H](Nc2cncc3ccccc23)C1 [Example 19, (S)-1-(2-((S)-3-(isoquinolin-4-ylamino)pyrrolidin-1-yl)acetyl)pyrrolidine-2-carbonitrile] |  |  |  |  |  |  | 11800 | 44 | 0.206 | > 1 | 45.2 | 0.00574 |
| N#C[C@@H]1C[C@H](F)CN1C(=O)CN1CCC(Nc2cccc3sccc23)CC1 [Example 336, (2S,4S)-1-(2-(4-(benzo[b]thiophen-4-ylamino)piperidin-1-yl)acetyl)-4-fluoropyrrolidine-2-carbonitrile] | 8500 | 6.52 | 1.19 | 7.39 | 11.5 | 0.0593 |  |  |  |  |  |  |
| Cc1ccc2ncc(N(C)[C@H]3CCN(CC(=O)N4CCC[C@H]4C#N)C3)cc2c1 [Example 150, (2S)-1-[2-[(3S)-3-[methyl-(6-methyl-3-quinolyl)amino]pyrrolidin-1-yl]acetyl]pyrrolidine-2-carbonitrile] |  |  |  |  |  |  | 2640 | 39.6 | 1.83 |  | ≥ 100 | 0.0011 |
| CN(c1cccc2ncccc12)[C@@H]1CCN(CC(=O)N2CCC[C@H]2C#N)C1 [Example 139, (2S)-1-[2-[(3R)-3-[methyl(5-quinolyl)amino]pyrrolidin-1-yl]acetyl]pyrrolidine-2-carbonitrile] |  |  |  |  |  |  | 5020 | 89 | 13 |  | ≥ 100 | 0.0167 |
